In patent US12343350B2, “Istaroxime-containing intravenous formulation for the treatment of acute heart failure (AHF)” (Windtree Therapeutics, Inc., priority 2019, dated 2025):

System: patients with Acute Decompensated Heart Failure
Experiment: Clinical study of istaroxime 24 h i.v. infusion in Acute Decompensated Heart Failure, echocardiography
Format: in vivo, human
Protocol: Echocardiography was performed on patients according to international standards (see, for example, Lang R M et al., J Am Soc Echocardiogr 2005; 18(12):1440-63; Nagueh S F et al., Eur J Echocardiogr 2009; 10(2):165-93; Evangelista A et al., Eur J Echocardiogr 2008; 9(4):438-48). Echocardiography was performed by expert physicians or sonographers at the sites. Echocardiography was done at screening, baseline, 6 hours after infusion start, 24 hours after infusion start (just before the end of infusion), and 48 hours after infusion start.
The following parameters were recorded for each patient at each timepoint and centrally measured by the CoreLab: • 1. Cardiac dimension measures: • a. Left ventricle end diastolic diameter (EDD): measured with M-mode echocardiography at the level of mitral valve (MV) leaflets from parasternal long axis view (PLAX) (normal range [NR]: 42-59 mm males and 39-53 mm females); • b. Left ventricle end systolic diameter (ESD): measured with M-mode echocardiography at the level of mitral valve (MV) leaflets from PLAX (NR: 25-35 mm); • c. Left ventricle end diastolic volume (EDV): measured with M-mode echocardiography at the level of mitral valve (MV) leaflets from PLAX (NR: 67-155 mL males and 56-104 mL females); • d. Left ventricle end systolic volume (ESV): measured with M-mode echocardiography at the level of mitral valve (MV) leaflets from PLAX (NR: 22-58 mL males and 19-49 mL females); • e. Left atrium diameter (LAD): measured at end-ventricular systole with M-mode echocardiography from PLAX. (NR: 30-40 mm males and 27-38 mm females) • f. Left atrium area (LAA): measured from apical four chamber view ([…]); and • g. Left atrium volume (LAV): derived from area-length measured from apical four chamber view (NR: 18-58 mL males and 22-52 mL females). • 2. Left ventricle diastolic function parameters: • a. E wave: measured from mitral valve pulsed wave Doppler, is the peak velocity of early filling. […] A wave: measured from mitral valve pulsed wave Doppler is the peak velocity of late atrial filling. Not evaluable in patients with AF; • c. E wave deceleration time (EDT): measured from mitral valve pulsed wave Doppler represent the slope of the descending part of E wave; • d. E/A ratio: determines the type of diastolic filling pattern (normal E/A=1-2 and EDT=150-200 ms, abnormal relaxation E/A<1 and […], pseudonormal E/A=0.8-1.5; restrictive […] and EDT<160 ms). Not evaluable in patients with AF; • e. Ea: measured with tissue Doppler method at the lateral and septal side of the mitral annulus from apical four chamber view is the early diastolic velocity. The value has been calculated as the average between Ea lateral and Ea septal. ([…]) (see Nagueh S F et al., Eur J Echocardiogr. 2009; 10(2):165-93); • f. Aa: measured with tissue Doppler method at the lateral and septal side of the mitral annulus from apical four chamber view is the late atrial diastolic velocity. The value has been calculated as the average between Aa lateral and Aa septal. Not evaluable in patients with AF; and • g. E/Ea ratio: this is a derived measure from E and Ea value. This is highly correlated with left ventricle filling pressure and with prognosis in patients with HF. (NR: <13) (see Nagueh S F et al., supra). • 3. Left ventricle systolic function parameters: • a. Left ventricle ejection fraction (LVEF): measured with Simpson biplane method according to international recommendations from apical four chamber view and apical two chamber view. ([…]) (see Lang R M et al., J Am Soc Echocardiogr. 2005; 18(12):1440-63); and • b. Sa: measured with tissue Doppler method at the lateral and septal side of the mitral annulus from apical four chamber view. The value has been calculated as the average between Sa lateral and Sa septal. […] Overall cardiac contraction parameters: • a. […]

[1] = 0.5 μg/kg/min i.v. for 24 h, at 48 hours
[2] = 0.5 μg/kg/min i.v., at 6 hours of infusion
[3] = 0.5 μg/kg/min i.v., at 24 hours of infusion
[4] = 1.0 μg/kg/min i.v. for 24 h, at 48 hours
[5] = 1.0 μg/kg/min i.v., at 6 hours of infusion
[6] = 1.0 μg/kg/min i.v., at 24 hours of infusion

For `C[C@]12CCC(=NOCCN)C[C@@H]1C(=O)C[C@@H]1[C@@H]2CC[C@]2(C)C(=O)CC[C@@H]12` [Istaroxime, (3Z,5a)-3-[(2-aminoethoxy)imino]androstane-6,17-dione], the CI change [1] was 0.191 ± 0.426 l/min/m^2, the CO change [1] was 0.350 ± 0.788 L/min and the E/A ratio change [1] was −0.278 ± 1.043. For the same compound, the “E/e′ ratio change” value [1] was −2.570 ± 3.654, the LVEF change [1] was 1.28 ± 3.693% and the SV change [1] was 4.815 ± 9.832 ml/beat. The SVI change [1] was 2.762 ± 5.603 ml/beat/m^2, the Sa change [1] was 0.224 ± 0.811 cm/s and the A wave change [2] was 1.76 ± 13.572 cm/s. The CI change [2] was 0.209 ± 0.445 l/min/m2, the CO change [2] was 0.385 ± 0.843 L/min and the E wave change [2] was -3.33 ± 14.764 cm/s. For the same compound, the E/A ratio change [2] was −0.286 ± 0.866, the “E/e′ ratio change” value [2] was −3.183 ± 5.628 and the EDT change [2] was 6.83 ± 47.921 ms. For the same compound, the LAA change [2] was −0.33 ± 1.885 cm^2, the LAV change [2] was -1.16 ± 11.265 mL and the “S Right V change” value [2] was 1.25 ± 2.185 cm/s. The SV change [2] was 7.724 ± 11.752 ml/beat, the SVI change [2] was 4.198 ± 6.218 ml/beat/m2 and the “Sa Left V change” value [2] was 0.613 ± 1.035 cm/s. The “e′ change” value [2] was 0.61 ± 1.010 cm/s, the A wave change [3] was 5.13 ± 10.990 cm/s and the CI change [3] was 0.264 ± 0.369 l/min/m2. For the same compound, the CO change [3] was 0.486 ± 0.696 L/min, the E wave change [3] was -8.14 ± 17.640 cm/s and the E/A ratio change [3] was −0.647 ± 0.812. For the same compound, the “E/e′ ratio change” value [3] was −4.548 ± 4.754, the EDT change [3] was 12.88 ± 54.954 ms and the LAA change [3] was −1.70 ± 2.463 cm^2. For the same compound, the LAV change [3] was -7.94 ± 13.269 mL, the “S Right V change” value [3] was 1.10 ± 1.780 cm/s and the SV change [3] was 9.725 ± 12.192 ml/beat. The SVI change [3] was 5.333 ± 6.664 ml/beat/m2, the “Sa Left V change” value [3] was 0.679 ± 0.907 cm/s and the “e′ change” value [3] was 0.94 ± 1.089 cm/s. It also gave a CI change [4] of 0.205 ± 0.407 l/min/m^2, a CO change [4] of 0.368 ± 0.735 L/min and an E/A ratio change [4] of −0.356 ± 0.967. For the same compound, the “E/e′ ratio change” value [4] was −2.218 ± 3.193, the LVEF change [4] was 2.06 ± 4.975% and the SV change [4] was 5.203 ± 8.078 ml/beat. The SVI change [4] was 2.913 ± 4.572 ml/beat/m^2, the Sa change [4] was 0.257 ± 0.771 cm/s and the A wave change [5] was 5.56 ± 17.280 cm/s. The CI change [5] was 0.140 ± 0.434 l/min/m2, the CO change [5] was 0.228 ± 0.760 L/min and the E wave change [5] was -9.13 ± 17.464 cm/s. The E/A ratio change [5] was −0.317 ± 0.898, the “E/e′ ratio change” value [5] was −2.028 ± 3.652 and the EDT change [5] was 20.37 ± 50.849 ms. For the same compound, the LAA change [5] was −0.84 ± 2.421 cm^2, the LAV change [5] was -4.92 ± 14.390 mL and the “S Right V change” value [5] was 2.00 ± 1.907 cm/s. For the same compound, the SV change [5] was 7.269 ± 8.134 ml/beat, the SVI change [5] was 4.187 ± 4.641 ml/beat/m2 and the “Sa Left V change” value [5] was 0.908 ± 0.936 cm/s. For the same compound, the “e′ change” value [5] was 0.01 ± 1.154 cm/s, the A wave change [6] was 11.10 ± 16.498 cm/s and the CI change [6] was 0.140 ± 0.443 l/min/m2. For the same compound, the CO change [6] was 0.239 ± 0.786 L/min, the E wave change [6] was -14.24 ± 24.416 cm/s and the E/A ratio change [6] was −0.722 ± 1.068. The “E/e′ ratio change” value [6] was −3.191 ± 2.623, the EDT change [6] was 9.79 ± 52.212 ms and the LAA change [6] was −2.56 ± 2.972 cm^2. For the same compound, the LAV change [6] was -13.81 ± 17.198 mL, the “S Right V change” value [6] was 1.55 ± 2.012 cm/s and the SV change [6] was 9.339 ± 8.875 ml/beat. For the same compound, the SVI change [6] was 5.318 ± 4.955 ml/beat/m2, the “Sa Left V change” value [6] was 0.803 ± 1.023 cm/s and the “e′ change” value [6] was 0.91 ± 1.792 cm/s.
